Results taken from PMC8448864, “Prolyl isomerase Pin1 plays an essential role in SARS-CoV-2 proliferation, indicating its possibility as a novel therapeutic target” (Scientific Reports, 2021).
Read-outs that look alike come from different tables or passages of the source.

Tests used:
[1] = test system: SARS-CoV-2; test: microbe, parasite or virus in culture; type: cell-based; details: for EC50: calculated using virus production at different drug concentrations
[2] = molecular target: recombinant Pin1 protein (Homo sapiens, UniProt Q13526); test: In vitro PPIase assay using recombinant Pin1 protein (method of Janowski et al., Eurofins Selcia); type: biochemical; details: for inhibition at 20 µM: concentration 20 µM; for inhibition at 2 µM: concentration 2 µM
[3] = test system: VeroE6/TMPRSS2 cells
[4] = test system: SARS-CoV-2; test: Membrane fusion (CPE, syncytium formation) and fusion index of infected VeroE6/TMPRSS2 cells; type: cell-based; details: for Membrane fusion (CPE caused by viral infection): MOI 0.01, 24 h
Description: Figure 2 Pin1 inhibitor H-77 inhibits SARS-CoV-2 proliferation in a concentration-dependent manner. VeroE6/TMPRSS2 cells were pretreated with the indicated concentrations of H-77 for 2 h, and were subjected to SARS-CoV-2 infection (MOI of 0.01) followed by incubation for 24 h in the presence of the same concentrations of H-77. (A) Western blotting of cell lysates (Duplicate in the figure) with SARS-CoV-2 N, Pin1, and actin antibodies. Full-length blots are presented in Supplementary Fig. 4. (B) vRNA copies contained in 5 µL of the supernatant were quantified by RT-qPCR using authorized SARS-CoV-2 N primers (n = 3). (C) Fusion index calculated by counting numbers of cells and nuclei of infected cells after Giemsa straining. Approximately 100 nuclei and cell number per field were counted for each of five fields. Error bars indicate standard deviation. *P < 0.05, **P < 0.01, Mann–Whitney U test, compared with 0 µM (DMSO). (D) Representative images of SARS-CoV-2-infected VeroE6/TMPRSS2 cells at 24 h post-infection with the indicated concentrations of H-77.
The cells were then washed with PBS, fixed with methanol, and stained with Giemsa staining solution. The fusion index was calculated as [1-(number of cells/number of nuclei)] as described previously. Approximately 100 nuclei and cell number per field were counted, and the average fusion index of five fields was calculated.

[5] = test system: SARS-CoV-2; type: cell-based; details: for SARS-CoV-2 proliferation: MOI 0.01, harvested 24 h after infection
[6] = test system: Pin1; parameters: method as in PMID 25849135; details: cited from earlier work
[7] = test system: FKBP; parameters: method as in PMID 25849135; details: cited from earlier work
[8] = test system: cyclophilin; parameters: method as in PMID 25849135; details: cited from earlier work
[9] = Severe acute respiratory syndrome coronavirus 2, VeroE6/TMPRSS2 cells, read-out: EC50 (50% effective concentration, SARS-CoV-2 proliferation)
[10] = Severe acute respiratory syndrome coronavirus 2, VeroE6/TMPRSS2, read-out: EC50 (50% effective concentration, SARS-CoV-2 proliferation), VeroE6/TMPRSS2 cells
[11] = 10 µM from 2 h before infection, 24 h after infection

Sequence of recombinant Pin1 protein (Q13526 whole entry, species assumed): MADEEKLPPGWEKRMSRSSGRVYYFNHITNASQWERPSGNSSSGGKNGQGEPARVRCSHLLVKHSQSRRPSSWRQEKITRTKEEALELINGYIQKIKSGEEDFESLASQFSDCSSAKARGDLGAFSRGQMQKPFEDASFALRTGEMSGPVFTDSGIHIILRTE

O=C(Nc1ccc(OCc2ccccc2)cc1C(=O)O)c1cccc(Oc2ccccc2)c1 [H-363]
EC50 [1, 9]: 6.3 µM | inhibition at 20 µM [2]: 82%

O=C1C=CC(=O)c2c(O)cccc21 [Juglone]
Cell survival [3]: unable to survive

O=C(O)[C@@H](Cc1ccc2ccccc2c1)OC(=O)n1c2ccccc2c2ccccc21 [H-175]
EC50 [1, 9]: 12 µM | inhibition at 20 µM [2]: 89%

O=C(Nc1ccc(OCc2ccc3ccccc3c2)cc1C(=O)O)c1ccc2ccccc2c1 [H-371]
EC50 [1, 9]: 4.2 µM | inhibition at 2 µM [2]: 80%

O=C(Nc1ccc(OCc2ccccc2)cc1C(=O)O)c1ccc2ccccc2c1 [H-77]
EC50 [1, 10]: < 5 µM | EC50 ([1]; read-out: EC50 (50% effective concentration, SARS-CoV-2 proliferation), VeroE6/TMPRSS2 cells): 3.2 µM | inhibition at 2 µM [2]: 67% | inhibition at 20 µM [2]: 82% | Membrane fusion (CPE caused by viral infection) ([4]; concentrations above 7.5 μM): almost absent | Membrane fusion (CPE caused by viral infection) ([4]; drug concentration increased to 5 μM): less apparent | SARS-CoV-2 proliferation ([5]; 10 µM added 2 h after infection): almost completely blocked | SARS-CoV-2 proliferation ([5]; 10 µM added 6 h after infection): weaker but still significant inhibitory effect | Amount of genomic RNA released from the cells (vRNA in supernatant) [5, 11]: significantly reduced | Intracellular viral N mRNA [5, 11]: significantly reduced

CC1=C(/C=C/C(C)=C/C=C/C(C)=C/C(=O)O)C(C)(C)CCC1 [ATRA, all-trans retinoic acid, reference compound]
EC50 [1, 10]: 17.9 µM | SARS-CoV-2 protein and viral RNA levels ([1]; concentration-dependent, pretreated 2 h, MOI 0.01, 24 h): marked reductions | CPE of SARS-CoV-2 ([4]; VeroE6/TMPRSS2 cells): alleviated | Activity of Pin1 [6]: inhibits | Activity of FKBP [7]: does not affect | Activity of cyclophilin [8]: does not affect

O=C(O)c1cc(NC(=O)n2c3ccccc3c3ccccc32)cc(NC(=O)n2c3ccccc3c3ccccc32)c1 [H-596]
EC50 [1, 9]: 5.2 µM | inhibition at 1 µM ([2]; concentration 1 µM): 13% | inhibition at 10 µM ([2]; concentration 10 µM): 101%
